# Like-named read-outs stand apart in the source and are kept apart here.
# Tests used:
# primary rat hepatocytes [1] = system: primary rat hepatocytes
# OATP1B1 [2] = molecular target: T1, OATP1B1 (Homo sapiens, UniProt Q9Y6L6); assay: Sodium fluorescein accumulation in OATP1B1-transfected HEK293T cells; settings: read-out: Ki for inhibition of sodium fluorescein accumulation, OATP1B1; competitive; inhibitor 10 min before, 3 min co-incubation; ± s.e. of the estimate; R2 0.79
# T1 sequence (Q9Y6L6 1-691): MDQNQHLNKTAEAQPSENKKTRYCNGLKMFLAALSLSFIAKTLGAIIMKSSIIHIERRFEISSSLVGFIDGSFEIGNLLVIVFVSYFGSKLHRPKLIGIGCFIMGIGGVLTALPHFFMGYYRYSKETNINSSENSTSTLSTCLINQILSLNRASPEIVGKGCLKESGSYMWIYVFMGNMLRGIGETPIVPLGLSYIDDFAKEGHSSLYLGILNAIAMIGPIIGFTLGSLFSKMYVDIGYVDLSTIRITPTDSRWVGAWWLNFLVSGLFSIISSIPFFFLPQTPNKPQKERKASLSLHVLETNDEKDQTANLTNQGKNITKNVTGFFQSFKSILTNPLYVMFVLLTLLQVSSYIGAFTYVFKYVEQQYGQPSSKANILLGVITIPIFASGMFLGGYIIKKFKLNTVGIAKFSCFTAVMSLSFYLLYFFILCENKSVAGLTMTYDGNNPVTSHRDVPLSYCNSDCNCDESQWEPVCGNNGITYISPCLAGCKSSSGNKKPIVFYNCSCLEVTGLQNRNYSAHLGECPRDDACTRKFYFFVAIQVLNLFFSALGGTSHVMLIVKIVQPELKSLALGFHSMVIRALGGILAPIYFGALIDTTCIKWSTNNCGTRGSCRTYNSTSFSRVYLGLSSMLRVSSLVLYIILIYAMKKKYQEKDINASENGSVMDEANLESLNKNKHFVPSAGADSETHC
# Description: (§1) Estimation of sodium fluorescein accumulation in OATP1B1/1B3 transfected cells was as described by [33], except that the cells were seeded in 24-well tissue culture plates at a density of 200 000 cells/well. Inhibitors were added 10 min prior to addition of sodium fluorescein, and the cells were then co-incubated with inhibitor and substrate for three min before removal of medium and washing.
# (§2) The data for uptake of fluorescein into HEK293T cells transfected with OATP1B1 or OATP1B3 in the absence or presence of inhibitor were fitted in SigmaPlot, using Michaelis Menten kinetics with competitive inhibition. Vmax and Km values obtained in absence of inhibitor were used to fit the Ki value for uptake in the presence of inhibitor.
# primary rat hepatocytes [3] = settings: 50 µM
# OATP1B3 [4] = molecular target: T2, OATP1B3 (Homo sapiens, UniProt Q9NPD5)
# primary rat hepatocytes [5] = system: primary rat hepatocytes; remark: listed apart in the source
# OATP1B1 [6] = molecular target: T1, OATP1B1
# OATP1B3 [7] = molecular target: T2, OATP1B3; settings: read-out: Ki for inhibition of sodium fluorescein accumulation, OATP1B3; competitive; inhibitor 10 min before, 3 min co-incubation; ± s.e. of the estimate; R2 0.91
# Description: as §1, §2
# OATP1B3 [8] = molecular target: T2, OATP1B3; assay: in vitro
# Description: as §1, §2
# OATP1B1 [9] = molecular target: T1, OATP1B1; settings: cited from earlier work
# OATP1B3 [10] = molecular target: T2, OATP1B3; settings: cited from earlier work
# [11] = substrate: O=C1OC2(c3ccc(O)cc3Oc3cc(O)ccc32)c2ccccc21; assay: cells, lysate or membranes; settings: other: ± s.e. of the estimate
# Description: as §1, §2
# T2 sequence (Q9NPD5 whole entry): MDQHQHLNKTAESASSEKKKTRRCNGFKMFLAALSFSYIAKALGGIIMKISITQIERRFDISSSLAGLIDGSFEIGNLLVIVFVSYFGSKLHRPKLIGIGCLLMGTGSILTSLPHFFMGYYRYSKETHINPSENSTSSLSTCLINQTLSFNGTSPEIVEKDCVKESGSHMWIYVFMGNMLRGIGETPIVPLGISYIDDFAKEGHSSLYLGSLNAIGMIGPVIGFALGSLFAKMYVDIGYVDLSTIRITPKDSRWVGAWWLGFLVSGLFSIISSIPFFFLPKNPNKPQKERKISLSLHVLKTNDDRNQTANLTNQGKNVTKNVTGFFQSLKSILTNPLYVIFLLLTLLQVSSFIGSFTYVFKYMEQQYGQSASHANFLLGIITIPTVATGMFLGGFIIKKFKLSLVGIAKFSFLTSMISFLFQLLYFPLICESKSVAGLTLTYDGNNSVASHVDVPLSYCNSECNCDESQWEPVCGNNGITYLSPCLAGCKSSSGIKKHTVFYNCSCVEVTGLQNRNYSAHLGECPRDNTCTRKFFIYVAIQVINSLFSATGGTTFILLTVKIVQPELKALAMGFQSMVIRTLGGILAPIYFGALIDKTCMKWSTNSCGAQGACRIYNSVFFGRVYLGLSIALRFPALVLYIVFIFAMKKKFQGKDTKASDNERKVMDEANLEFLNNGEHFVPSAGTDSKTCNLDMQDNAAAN
molecule,measurement,setting,value
"CO[C@@H]1[C@@H]2OP(=O)(O)OC[C@H]2O[C@H]1n1c(Sc2ccc(Cl)cc2)nc2c(N)ncnc21 [8-pCPT-2′-O-Me-cAMP, 8-(4-Chlorophenylthio)-2′-O-methyladenosine-3′, 5′-cyclic monophosphate]",Effect on Nod-induced hepatocyte apoptosis (Fig. 1A),primary rat hepatocytes [1],inhibited completely apoptotic morphology
same,Effect on Nod-induced hepatocyte apoptosis (Fig. 2A),primary rat hepatocytes [1],clear inhibition
same,Ki,OATP1B1 [2],46 ± 21 µM
same,Effect on [14C]-glycocholic acid accumulation in hepatocytes,primary rat hepatocytes [3],almost completely inhibited
same,"Effect on Nod-induced apoptosis / Nod transport, OATP1B3-transfected HEK293T cells",OATP1B3 [4],abolished
same,IC50,OATP1B3 [4],12.6 µM
same,Ki,OATP1B3 [4],3.38 µM
same,Effect on [3H]-Nod accumulation in hepatocytes,primary rat hepatocytes [5],almost completely inhibited
same,"Effect on Nod-induced apoptosis / Nod transport, OATP1B1-transfected HEK293T cells",OATP1B1 [6],abolished
same,IC50,OATP1B1 [6],46.4 µM
same,Ki,OATP1B1 [6],15.5 µM
same,Ki,OATP1B3 [7],75 ± 22 µM
"O=C1OC2(c3ccc(O)cc3Oc3cc(O)ccc32)c2ccccc21 [fluorescein, sodium fluorescein]",Km,OATP1B3 [8],285 ± 134 µM
Nostocyclopeptide-M1,Potency as OATP1B1 inhibitor compared with the cAMP analogs,OATP1B1 [9],more potent inhibitor
same,Potency as OATP1B3 inhibitor compared with the cAMP analogs,OATP1B3 [10],more potent inhibitor
OATP1B1 (Homo sapiens) (protein) MDQNQHLNKTAEAQPSENKKTRYCNGLKMFLAALSLSFIAKTLGAIIMKSSIIHIERRFEISSSLVGFIDGSFEIGNLLVIVFVSYFGSKLHRPKLIGIGCFIMGIGGVLTALPHFFMGYYRYSKETNINSSENSTSTLSTCLINQILSLNRASPEIVGKGCLKESGSYMWIYVFMGNMLRGIGETPIVPLGLSYIDDFAKEGHSSLYLGILNAIAMIGPIIGFTLGSLFSKMYVDIGYVDLSTIRITPTDSRWVGAWWLNFLVSGLFSIISSIPFFFLPQTPNKPQKERKASLSLHVLETNDEKDQTANLTNQGKNITKNVTGFFQSFKSILTNPLYVMFVLLTLLQVSSYIGAFTYVFKYVEQQYGQPSSKANILLGVITIPIFASGMFLGGYIIKKFKLNTVGIAKFSCFTAVMSLSFYLLYFFILCENKSVAGLTMTYDGNNPVTSHRDVPLSYCNSDCNCDESQWEPVCGNNGITYISPCLAGCKSSSGNKKPIVFYNCSCLEVTGLQNRNYSAHLGECPRDDACTRKFYFFVAIQVLNLFFSALGGTSHVMLIVKIVQPELKSLALGFHSMVIRALGGILAPIYFGALIDTTCIKWSTNNCGTRGSCRTYNSTSFSRVYLGLSSMLRVSSLVLYIILIYAMKKKYQEKDINASENGSVMDEANLESLNKNKHFVPSAGADSETHC,Km,[11],402 ± 140 µM

# Source: publication PMC3989234, “Introduction of Aromatic Ring-Containing Substituents in Cyclic Nucleotides Is Associated with Inhibition of Toxin Uptake by the Hepatocyte Transporters OATP 1B1 and 1B3” (PLoS ONE, 2014)
